In the assay the target is T1, human TGR5 (h-TGR5) (Homo sapiens, UniProt Q8TDU6).
T1 construct: expressed in transfected cells
T1 sequence (Q8TDU6 1-330): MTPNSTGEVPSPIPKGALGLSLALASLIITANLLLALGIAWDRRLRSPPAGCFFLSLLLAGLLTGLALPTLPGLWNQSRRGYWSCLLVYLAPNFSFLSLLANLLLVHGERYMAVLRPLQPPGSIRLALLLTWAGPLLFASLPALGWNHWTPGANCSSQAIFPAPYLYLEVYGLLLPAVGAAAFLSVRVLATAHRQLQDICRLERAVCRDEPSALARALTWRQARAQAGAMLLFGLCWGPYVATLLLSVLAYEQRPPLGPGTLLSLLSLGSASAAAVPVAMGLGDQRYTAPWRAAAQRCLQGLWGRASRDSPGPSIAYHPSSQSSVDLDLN
As to the kind of experiment: TGR5/CRE-Luciferiase Assay (HEK 293 hTGR5/CRE-Luc cells). Conditions: h-TGR5 CRE-Luc EC50, Table 1; read-out: CRE-Luc (EC50). Type of assay: cell-based. How it is done:
Compounds were serially diluted in DMEM containing 5% DMSO and 5 μL of compound or media alone was transferred to each well and plates were incubated for 6 hours. Following incubation, 30 μL of lysis/luciferase buffer was added to each well. The luciferase activity was then measured on the EnVision™ plate reader and the dose response data was analyzed using ActivityBase.
In the following tables, EC50 values determined according to the TGR5 cAMP Assay described herein (cAMP); EC50 values determined according to the TGR5/CRE-Luciferiase Assay described herein (CRE-Luc). […] The following compounds in Tables 1 and 2 were made by using procedures described in the above Schemes and Examples, and, where applicable, by making any necessary substitutions of known materials that one skilled in the art would ordinarily understand how to do.

Broadly, the EC50 is the concentration at which the effect is half-maximal. Regarding `CC(C)(c1ccc(Cl)c(Cl)c1)c1cnc(SCc2ccc(C(N)=O)c(F)c2)n1-c1ccc(F)cc1` [4-[({5-[1-(3,4-dichlorophenyl)-1-methylethyl]-1-(4-fluorophenyl)-1H-imidazol-2-yl}thio)methyl]-2-fluorobenzamide], the EC50 was 0.1 to 1 µM.

Turning to `COc1ccc(C(C)(C)c2c(-c3ccc(F)cc3)nc(SCc3c(F)cccc3Cl)n2C)cc1OC` [5-{1-[3,4-bis(methyloxy)phenyl]-1-methylethyl}-2-{[(2-chloro-6-fluorophenyl)methyl]thio}-4-(4-fluorophenyl)-1-methyl-1H-imidazole], the EC50 is 1 to 10 µM. Take `CC(Sc1ccc(F)cc1Cl)c1ncc(C(C)(C)c2ccc(Cl)c(Cl)c2)n1-c1ccc(F)cc1` (centres unmarked) [2-{1-[(2-chloro-4-fluorophenyl)thio]ethyl}-5-[1-(3,4-dichlorophenyl)-1-methylethyl]-1-(4-fluorophenyl)-1H-imidazole]: the EC50 lay in the range of 1 to 10 µM.

Consider `COc1ccc(C(C)(C)c2cnc(SCc3ccc(F)c(Cl)c3)n2-c2ccc(F)cc2)cc1OC` [5-{1-[3,4-bis(methyloxy)phenyl]-1-methylethyl}-2-{[(3-chloro-4-fluorophenyl)methyl]thio}-1-(4-fluorophenyl)-1H-imidazole], for which the EC50 is below 0.1 µM. On to `COc1ccc(C(C)(C)c2cnc(C(=O)Nc3ccc(F)c(Cl)c3)n2-c2ccc(F)cc2)cc1OC` [5-{1-[3,4-bis(methyloxy)phenyl]-1-methylethyl}-N-(3-chloro-4-fluorophenyl)-1-(4-fluorophenyl)-1H-imidazole-2-carboxamide], for which the EC50 lay within 1 to 10 µM. As to `COc1c(Cl)cc(C(C)(C)c2cnc(SCc3ccc(S(N)(=O)=O)cc3Cl)n2-c2ccc(F)cc2)cc1Cl` [3-chloro-4-({[5-{1-[3,5-dichloro-4-(methyloxy)phenyl]-1-methylethyl}-1-(4-fluorophenyl)-1H-imidazol-2-yl]thio}methyl)benzenesulfonamide], the EC50 was below 0.1 µM. Consider `CC(C)(c1ccc(S(C)(=O)=O)cc1)c1cnc(SCc2ccc(S(=O)(=O)NC(=O)NN3CCCC3)cc2Cl)n1-c1ccc(F)cc1` [3-chloro-4-({[1-(4-fluorophenyl)-5-{1-methyl-1-[4-(methylsulfonyl)phenyl]ethyl}-1H-imidazol-2-yl]thio}methyl)-N-[(pyrrolidin-1-ylamino)carbonyl]benzenesulfonamide], for which the EC50 was in the range of 1 to 10 µM. Take `CC(C)(c1ccc(Cl)c(Cl)c1)c1cnc(/C=C/c2c(F)cccc2Cl)n1-c1ccc(F)cc1` [2-[(E)-2-(2-chloro-6-fluorophenyl)ethenyl]-5-[1-(3,4-dichlorophenyl)-1-methylethyl]-1-(4-fluorophenyl)-1H-imidazole]: the EC50 lay in the range of 1 to 10 µM. Then `CC(C)(C)OC(=O)N1CCC(OCc2ncc(C(C)(C)c3ccc(Cl)c(Cl)c3)n2-c2ccc(F)cc2)CC1` [1,1-dimethylethyl 4-[({5-[1-(3,4-dichlorophenyl)-1-methylethyl]-1-(4-fluorophenyl)-1H-imidazol-2-yl}methyl)oxy]piperidine-1-carboxylate], with 1 to 10 µM; and `CC(C)n1c(C(C)(C)c2ccc(Cl)c(Cl)c2)cnc1SCc1c(F)cccc1Cl` [2-{[(2-chloro-6-fluorophenyl)methyl]thio}-5-[1-(3,4-dichlorophenyl)-1-methylethyl]-1-(1-methylethyl)-1H-imidazole], with 1 to 10 µM; and `CC(C)(c1ccc(Cl)c(Cl)c1)c1cnc(COc2ccnc3ccccc23)n1-c1ccc(F)cc1` [4-[({5-[1-(3,4-dichlorophenyl)-1-methylethyl]-1-(4-fluorophenyl)-1H-imidazol-2-yl}methyl)oxy]quinoline], with 1 to 10 µM.

Regarding `CC(C)(c1ccc(Cl)c(Cl)c1)c1cnc(SCc2ccc(F)cc2Cl)n1-c1ccc(N2CCOCC2)cc1` [4-[4-(2-{[(2-chloro-4-fluorophenyl)methyl]thio}-5-[1-(3,4-dichlorophenyl)-1-methylethyl]-1H-imidazol-1-yl)phenyl]morpholine], the EC50 fell in the range of 1 to 10 µM. With `CC(C)(c1ccc(Cl)c(Cl)c1)c1cnc(SCc2c(F)cccc2Cl)n1-c1ccc(Cl)cc1F` [1-(4-chloro-2-fluorophenyl)-2-{[(2-chloro-6-fluorophenyl)methyl]thio}-5-[1-(3,4-dichlorophenyl)-1-methylethyl]-1H-imidazole] the figure was 0.1 to 1 µM; with `CC(C)(c1ccc(Cl)c(Cl)c1)c1cnc(S(=O)(=O)Cc2c(F)cccc2Cl)n1-c1ccc(F)cc1Cl` [1-(2-chloro-4-fluorophenyl)-2-{[(2-chloro-6-fluorophenyl)methyl]sulfonyl}-5-[1-(3,4-dichlorophenyl)-1-methylethyl]-1H-imidazole], 1 to 10 µM. `CC(C)(c1ccc(Cl)c(Cl)c1)c1cnc(COc2ccc(C(=O)O)cn2)n1-c1ccc(F)cc1` [6-[({5-[1-(3,4-dichlorophenyl)-1-methylethyl]-1-(4-fluorophenyl)-1H-imidazol-2-yl}methyl)oxy]pyridine-3-carboxylic acid]: the EC50 lay within 0.1 to 1 µM. `COc1ccc(C(C)(C)c2cnc(C(=O)N3CCCC3)n2-c2ccc(F)cc2)cc1OC` [5-{1-[3,4-bis(methyloxy)phenyl]-1-methylethyl}-1-(4-fluorophenyl)-2-(pyrrolidin-1-ylcarbonyl)-1H-imidazole]: the half-maximal effective concentration (EC50) fell in the range of 1 to 10 µM. With `CC(C)(c1ccc(Cl)c(Cl)c1)c1cnc(SCc2cc(C(N)=O)ccc2Cl)n1-c1ccc(F)cc1` [4-chloro-3-[({5-[1-(3,4-dichlorophenyl)-1-methylethyl]-1-(4-fluorophenyl)-1H-imidazol-2-yl}thio)methyl]benzamide], the EC50 lay within 0.1 to 1 µM.

With `CC(C)(c1ccc(Cl)c(Cl)c1)c1cnc(SCc2ccc(F)c(CO)c2)n1-c1ccc(F)cc1` [{5-[({5-[1-(3,4-dichlorophenyl)-1-methylethyl]-1-(4-fluorophenyl)-1H-imidazol-2-yl}thio)methyl]-2-fluorophenyl}methanol], the EC50 was in the range of 0.1 to 1 µM. Turning to “2-chloro-5-{1-[2-{(2-chloro-4- fluorophenyl)methyl]thio}-1-(4-fluorophenyl)- 1H-imidazol-5-yl]-1- methylethyl}benzenesulfonamide”, the EC50 was in the range of 0.1 to 1 µM. For the compound `CC(C)(Oc1cc(F)ccc1CSc1ncc(C(C)(C)c2ccc(Cl)c(Cl)c2)n1-c1ccc(F)cc1)C(=O)O` [2-({2-[({5-[1-(3,4-dichlorophenyl)-1-methylethyl]-1-(4-fluorophenyl)-1H-imidazol-2-yl}thio)methyl]-5-fluorophenyl}oxy)-2-methylpropanoic acid], the EC50 is 1 to 10 µM. Take `CC(C)(c1ccc(Cl)c(Cl)c1)c1cnc(SCc2c(F)cccc2Cl)n1-c1ccc(F)cc1C(F)(F)F` [2-{[(2-chloro-6-fluorophenyl)methyl]thio}-5-[1-(3,4-dichlorophenyl)-1-methylethyl]-1-[4-fluoro-2-(trifluoromethyl)phenyl]-1H-imidazole]: the EC50 was in the range of 1 to 10 µM.

As for `CC(C)(O)COc1cc(C(C)(C)c2cnc(SCc3c(F)cccc3Cl)n2-c2ccc(F)cc2)ccc1Cl` [1-[(2-chloro-5-{1-[2-{[(2-chloro-6-fluorophenyl)methyl]thio}-1-(4-fluorophenyl)-1H-imidazol-5-yl]-1-methylethyl}phenyl)oxy]-2-methylpropan-2-ol], the EC50 lay within 0.1 to 1 µM. As for `CN(C)CCOc1ccc(C(C)(C)c2cnc(SCc3c(F)cccc3Cl)n2-c2ccc(F)cc2)cc1` [2-[(4-{1-[2-{[(2-chloro-6-fluorophenyl)methyl]thio}-1-(4-fluorophenyl)-1H-imidazol-5-yl]-1-methylethyl}phenyl)oxy]-N,N-dimethylethanamine], the EC50 was in the range of 1 to 10 µM.

(Values after US8785488B2 (Exelixis Patent Company LLC, priority 2009, dated 2014).)
